Article PMC7005646, “Overcoming resistance to anabolic SARM therapy in experimental cancer cachexia with an HDAC inhibitor” (EMBO Molecular Medicine, 2020)

Legend:
C‐26 tumor‐bearing mice [1] = assay: Combined androgen and AR‐42 study (Study 4), C‐26 model; type: in vivo, mouse
Experimental: These studies were performed as previously described (Tseng et al, 2015a) with modifications. Tumors were established in the right flank of CD2F1 mice by subcutaneous injection of C‐26 cells (0.5 × 10^6 cells in 0.1 ml). […] TFM‐4AS‐1 (a potent experimental SARM), DHT, and vehicles were administered by subcutaneous injection.
Similar to Study 2, the tumor‐free control group was maintained at six animals, whereas 10 animals were included in each of the 6 tumor‐bearing groups. Six days after cell injection, animals with palpable tumors were treated once daily for 13 days with vehicles for AR‐42 and TFM‐4AS‐1/DHT (n = 9), AR‐42 (10 mg/kg; TFM‐4AS‐1/DHT vehicle; n = 10), TFM‐4AS‐1 (10 mg/kg; AR‐42 vehicle; n = 9), DHT (3 mg/kg; AR‐42 vehicle; n = 10), the combination of AR‐42 and TFM‐4AS‐1 (10 mg/kg each; n = 9), or the combination of AR‐42 (10 mg/kg) and DHT (3 mg/kg; n = 10). Grip strength was measured, and tissues were collected as in the previous studies.
Forelimb grip strength was measured using Bio‐GS3 Grip Strength Test Meter (Forceleader DBA Bioseb, Pinellas Park, FL). Each mouse was held by the base of its tail and lowered over the apparatus until its forepaws grasped the metal pull bar. […] The force applied to the bar at the moment of release was recorded as the peak force. […]

C‐26 cells = assay: Cell viability assay (CCK‐8); type: cell-based, mouse; settings: up to 10 µM, 48 hours
Experimental: Cell viability assays were conducted using the CCK‐8 kit (Dojindo Molecular Technologies, Inc; Kumamoto, Japan). Briefly, 1,250 cells per well were plated on 96‐well plates and allowed to adhere overnight.

pSTAT3 (Y705) = assay: pSTAT3/tSTAT3 Western blot of gastrocnemius muscle; type: in vivo, mouse
Experimental: Western blots from all studies were performed on gastrocnemius muscle from representative animals lysed by Nonidet P‐40 isotonic lysis buffer [50 mM Tris–HCl, pH 7.5, 120 mM NaCl, 1% (v/v) Nonidet P‐40, 1 mM EDTA, 50 mM NaF, 40 mM glycerophosphate, and […] each of protease inhibitors (aprotinin, pepstatin, and leupeptin)]. Equivalent amounts of protein from each sample, as determined by the Bradford assay (Bio‐Rad), were resolved by SDS–PAGE and then transferred (semi‐dry) onto Immobilon nitrocellulose membranes (Millipore, Bellerica, MA). Membranes were washed twice with TBST [Tris‐buffered saline (TBS) containing 0.1% Tween‐20], blocked with 5% non‐fat milk in TBST for 1 h, and then washed an additional three times. Membranes were incubated with specific primary antibody in TBST (1:1,000) at 4°C overnight, washed three times (TBST), and then incubated with appropriate goat anti‐rabbit or anti‐mouse IgG–horseradish peroxidase‐conjugated secondary antibodies (1:5,000) at room temperature (1 h). Following additional washes (TBST), immunoblots were visualized as appropriate by ECL chemiluminescence (Amersham Biosciences, Little Chalfont, United Kingdom) or Duration HRP Chemiluminescence (Alkali Scientific, Florida, United States). Primary antibodies: phospho‐STAT3 (Tyr705) (D3A7) XP® rabbit mAb #9145, STAT3 (124H6) mouse mAb #9139 (Cell Signaling Technology, Danvers, MA); α‐tubulin (B‐7), sc‐5286 (Santa Cruz Biotechnologies, Santa Cruz, CA); androgen receptor (EP670Y), ab52615 (Abcam, Cambridge, MA) and GAPDH (6C5), sc‐32233 (Santa Cruz Biotechnologies, Santa Cruz, CA).

[2] = male rats, 0.5 mpk; ref Xenobiotica. 2013 Nov;43(11):993-1009; cited from earlier work
C‐26 tumor‐bearing mice [3] = assay: Initial AR‐42/GTx‐024 combination study (Study 1), male C‐26 tumor‐bearing mice; type: in vivo, mouse
LLC tumor‐bearing mice = assay: AR‐42/GTx‐024 combination study in the LLC cachexia model (Study 5); type: in vivo, mouse
Experimental: This study was performed as previously described (Tseng et al, 2015a) with modifications. Tumors were established in the right hindlimb of male C57BL/6NHsd mice by intramuscular injection of LLC cells (0.5 × 10^6 cells in 0.05 ml). Similar to Study 3, the tumor‐free control group was maintained at six animals, whereas 12 animals were included in each of the tumor‐bearing groups. […] Grip strength, body weight, and food consumption were measured, and tissues were collected as in the previous C‐26 studies.

[4] = GTx‐024 plasma pharmacokinetics, LLC tumor‐bearing C57BL/6NHsd mice; type: in vivo, mouse
Experimental: Blood was collected by cardiac puncture into heparinized tubes (BD Microtainer, Becton, Dickinson and Company, Franklin Lakes, NJ, USA) and immediately centrifuged at room temperature for 3 min at 4,200 RCF. Plasma was removed and placed on dry ice prior to storage at −80°C until analysis. Bioanalytical analyses were conducted as previously described (Cheng et al, 2016) by Charles River Laboratories, Inc. (Wilmington, MA, USA). Non‐compartmental analysis was performed using the PKNCA package in R version 3.6.0.

[5] = system: serum‐luteinizing hormone; assay: Serum luteinizing hormone radioimmunoassay, Study 1; type: in vivo, mouse; settings: Study 1, day 18, 15 mg/kg, C‐26 tumor‐bearing mice
Experimental: Luteinizing hormone was measured in serum by a two‐site sandwich radioimmunoassay performed by the Ligand Assay and Analysis Core at the Center for Research in Reproduction, University of Virginia School of Medicine (Charlottesville, VA). Serum was isolated by centrifugation (2,000 g, 15 min) from whole blood samples collected from mice immediately post‐mortem, and then stored at −80°C until shipment on dry ice.

serum cytokines = assay: Serum cytokine panel (multiplex), terminal samples from Study 2; type: in vivo, mouse; settings: GTx‐024 15 mg/kg, mean ± SD
Experimental: This confirmatory study was performed exactly as Study 1 with expanded animal numbers. Tumor‐free control groups were maintained at 6 animals each, whereas 10 animals were included in each of the tumor‐bearing groups. […] Grip strength was measured on study days 0 (baseline) and 16. Due to rapid model progression, this study was terminated on day 17 after only 12 days of treatment.
Serum cytokine panel analyses were performed by a commercial vendor (Eve Technologies, Calgary, Canada) as previously described (Tseng et al, 2015a). Serum interleukin‐6 (IL‐6) was measured using a commercial ELISA kit (R&D Systems, Minneapolis, MN, USA) according to the manufacturer's instructions.

[6] = Study 1, male, day 18, GTx‐024 15 mg/kg, AR‐42 10 mg/kg, or both
[7] = male, C57BL/6NHsd, mouse, single 15 mg/kg oral dose, plasma
[8] = C‐26 Tumor‐bearing, AR‐42 10 mg/kg, or both

C[C@]12CCC(=O)C[C@@H]1CC[C@@H]1[C@@H]2CC[C@]2(C)[C@@H](O)CC[C@@H]12 [DHT, dihydrotestosterone]
C‐26 tumor growth (C‐26 tumor‐bearing mice [1]; Study 4, DHT alone 3 mg/kg, after 8 days of administration): tumor growth was significantly suppressed
direct effects on C‐26 cell viability (C‐26 cells): did not detect direct effects

CN1C(=O)C=C[C@]2(C)[C@H]3CC[C@]4(C)[C@@H](C(=O)Nc5ccccc5C(F)(F)F)CC[C@H]4[C@@H]3CC[C@@H]12 [TFM‐4AS‐1]
sparing of body weight or mass of gastrocnemius or quadriceps (C‐26 tumor‐bearing mice [1]; Study 4, monotherapy 10 mg/kg subcutaneous): did not spare body weight

C[C@](O)(COc1ccc(C#N)cc1)C(=O)Nc1ccc(C#N)c(C(F)(F)F)c1 [GTx‐024, (S)‐N‐(4‐cyano‐3‐(trifluoromethyl)phenyl)‐3‐(4‐cyanophenoxy)‐2‐hydroxy‐2‐methylpropanamide]
pSTAT3 in gastrocnemius (pSTAT3 (Y705); female C‐26 tumor‐bearing mice, Study 3): reduced levels of pSTAT3 activation
pSTAT3 in gastrocnemius (pSTAT3 (Y705); male C‐26 tumor‐bearing mice, Study 1): no apparent effect
AUCinf [2]: approximately 4.3 ug*hr/mL
body weight in tumor‐free controls (C‐26 tumor‐bearing mice [3]; Study 1, 15 mg/kg daily oral): did not cause body weight loss
terminal body weight corrected for tumor mass (C‐26 tumor‐bearing mice [3]; Study 1, male, day 18, 13 days daily oral, GTx‐024 15 mg/kg, AR‐42 10 mg/kg, or both): 79.0 ± 11.2 % of tumor‐free controls
terminal gastrocnemius mass (C‐26 tumor‐bearing mice [3]; [6]): 84 ± 11.3 % of tumor‐free controls
terminal quadriceps mass (C‐26 tumor‐bearing mice [3]; [6]): 80.0 ± 9.1 % of tumor‐free controls
LLC tumor growth (LLC tumor‐bearing mice; Study 5, 15 mg/kg daily oral): stimulated LLC tumor growth
LLC tumor growth (LLC tumor‐bearing mice; repeat of Study 5, 0.5 mg/kg daily oral): did not promote LLC tumor growth
response of body weight and skeletal muscle mass loss (LLC tumor‐bearing mice; repeat of Study 5, 10 mg/kg AR‐42, 0.5 mg/kg GTx‐024, or both): did not respond
projected mouse exposure at 0.5 mpk over rat exposure at 0.5 mpk ([4]; 28.8 vs 4.3 ug*hr/mL): 6.7 fold
exposure projected for 0.5 mg/kg ([4]; 30‐fold dose reduction from 15 mg/kg, mouse): ~ 28.8 μg*h/ml
AUC(0-inf) [4, 7]: 863 µg·h/mL
AUC(0-t) [4, 7]: 721 µg·h/mL
Cmax [4, 7]: 25800 ng/mL
half-life [4, 7]: 18.1 h
serum‐luteinizing hormone [5]: suppressed serum‐luteinizing hormone
GM‐CSF, serum (serum cytokines; [8]): 17.35 ± 4.33 pg/mL
G‐CSF, serum (serum cytokines; [8]): 2446.63 ± 1625.70 pg/mL
IL‐6, serum (serum cytokines; [8]): 397.54 ± 341.43 pg/mL
IL‐17, serum (serum cytokines; [8]): 1.75 ± 1.28 pg/mL
IP‐10, serum (serum cytokines; [8]): 154.76 ± 17.98 pg/mL
KC, serum (serum cytokines; [8]): 288.89 ± 154.46 pg/mL
LIF, serum (serum cytokines; [8]): 45.26 ± 21.57 pg/mL
LIX, serum (serum cytokines; [8]): 5234.39 ± 4771.34 pg/mL
M‐CSF, serum (serum cytokines; [8]): 22.23 ± 9.45 pg/mL
GM‐CSF, serum (serum cytokines; Tumor‐free): 13.27 ± 4.62 pg/mL
G‐CSF, serum (serum cytokines; Tumor‐free): 338.39 ± 71.70 pg/mL
IL‐6, serum (serum cytokines; Tumor‐free): 2.45 ± 1.31 pg/mL
IL‐17, serum (serum cytokines; Tumor‐free): 5.01 ± 1.18 pg/mL
IP‐10, serum (serum cytokines; Tumor‐free): 145.68 ± 48.83 pg/mL
KC, serum (serum cytokines; Tumor‐free): 90.02 ± 17.69 pg/mL
LIF, serum (serum cytokines; Tumor‐free): 2.50 ± 2.34 pg/mL
LIX, serum (serum cytokines; Tumor‐free): 1316.67 ± 1662.66 pg/mL
M‐CSF, serum (serum cytokines; Tumor‐free): 27.23 ± 10.09 pg/mL
direct effects on C‐26 cell viability (C‐26 cells): did not detect differences in the direct effects
